The target in experiment [1] is T1, mMC4R (Mus musculus, UniProt P56450). The following applies: antagonist, Schild analysis with agonist NDP-MSH; mean ± SEM.
Method: (§1) Pyrrolidine bis-cyclic guanidine compounds were assessed for biological activity using the AlphaScreen cAMP kit with HEK293 cells stably expressing the mMC1R, mMC3R, mMC4R, or mMC5R, as previously described [37, 38, 39]. […] Compounds were assayed for agonist activity in a 7-point dose–response curve (10^−3 to 10^−9 M). […] The purified compounds were dissolved in DMSO at a stock concentration of 10^−1 M and assayed using HEK293 cells stably expressing the mouse MC1R, MC3R, MC4R, and MC5R using the AlphaScreen cAMP bioassay (PerkinElmer, Waltham, MA, USA) according to the manufacturer’s instructions and as previously described [37, 38, 39].
(§2) Briefly, cells 70−90% confluent were dislodged with Versene (Gibco, Waltham, MA, USA) at 37 °C and 10,000 cells/well were plated in a 384-well plate (Optiplate, PerkinElmer, Waltham, MA, USA) with 10 μL of freshly prepared stimulation buffer (1× HBSS, 5 mM HEPES, 0.5 mM IBMX, 0.1% BSA, pH = 7.4) with 0.5 μg of anti-cAMP acceptor beads per well. The cells were stimulated with the addition of 5 μL of stimulation buffer containing compound or forskolin (10^−4 M) and incubated in the dark at room temperature for 2 h. Following stimulation, streptavidin donor beads (0.5 μg) and biotinylated cAMP (0.62 μmol) were added to the wells in a green light environment with 10 μL of lysis buffer (5 mM HEPES, 0.3% Tween-20, 0.1% BSA, pH = 7.4) and the plates were incubated in the dark at room temperature for an additional 2 h. Plates were read on a Enspire (PerkinElmer, Waltham, MA, USA) Alpha plate reader using a pre-normalized assay protocol (set by the manufacturer).
The target of experiment [2] is T1, mMC4R. Briefly: cell-based.
Method: as §1, §2
Experiment [3] has as its target T2, mMC1R (Mus musculus, UniProt Q01727). Set-up: expressed in transfected cells; method as in PMID 33886285. Conditions: cited from earlier work.
For experiment [4], the target named is T3, mMC3R (Mus musculus, UniProt P33033). The arrangement: expressed in transfected cells; method as in PMID 33886285. Conditions: β-galactosidase reporter gene assay; read-out: mMC3R agonist EC50 (previously reported); cited from earlier work. (A reporter such as luciferase makes a cellular process visible.)
T3 sequence (P33033 whole entry): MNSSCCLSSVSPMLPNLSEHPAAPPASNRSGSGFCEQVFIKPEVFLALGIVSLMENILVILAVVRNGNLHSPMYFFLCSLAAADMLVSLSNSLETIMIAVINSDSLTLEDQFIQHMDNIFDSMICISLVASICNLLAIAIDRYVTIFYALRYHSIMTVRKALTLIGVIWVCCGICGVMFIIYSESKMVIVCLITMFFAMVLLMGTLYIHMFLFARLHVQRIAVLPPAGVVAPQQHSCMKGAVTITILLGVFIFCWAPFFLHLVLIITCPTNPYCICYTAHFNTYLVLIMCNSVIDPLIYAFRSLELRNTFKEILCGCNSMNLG
The target in experiment [5] is T1, mMC4R. Set-up: expressed in transfected cells; method as in PMID 33886285. The following applies: cited from earlier work.
Experiment [6] has as its target T1, mMC4R. The arrangement: expressed in transfected cells; method as in PMID 33886285. The following applies: with agonist MTII; cited from earlier work.
Experiment [7] addresses T4, mMC5R (Mus musculus, UniProt P41149). Set-up: expressed in transfected cells; method as in PMID 33886285. Conditions: β-galactosidase reporter gene assay; read-out: mMC5R agonist EC50 (previously reported); cited from earlier work.
Experiment [8] has as its target T2, mMC1R. Briefly: AlphaScreen cAMP agonist assay, HEK293 cells stably expressing mMC1R.
Method: as §1, §2
In experiment [9] the target is T3, mMC3R. The experiment can be described thus: AlphaScreen cAMP agonist assay, HEK293 cells stably expressing mMC3R.
Method: as §1, §2
For experiment [10], the target named is T1, mMC4R. Briefly: AlphaScreen cAMP agonist assay, HEK293 cells stably expressing mMC4R. Conditions: for mMC4R partial agonist efficacy bin: sigmoidal curve, efficacy <90% of NDP-MSH. For orientation: In Alpha technology, singlet oxygen from a donor bead excites a nearby acceptor bead.
The target of experiment [11] is T4, mMC5R. Briefly: AlphaScreen cAMP agonist assay, HEK293 cells stably expressing mMC5R.
Method: as §1, §2
Experiment [12] concerns MC1R. Set-up: method as in PMID 21215742. Conditions: read-out: MC1R antagonist IC50; cited from earlier work.
In experiment [13] the test system is MC5R. Set-up: method as in PMID 21215742. The following applies: read-out: MC5R antagonist IC50; cited from earlier work.
The target in experiment [14] is mouse melanocortin-1 receptor (mouse) (UniProt Q01727).
Chain of mouse melanocortin-1 receptor (mouse) (Q01727 whole entry): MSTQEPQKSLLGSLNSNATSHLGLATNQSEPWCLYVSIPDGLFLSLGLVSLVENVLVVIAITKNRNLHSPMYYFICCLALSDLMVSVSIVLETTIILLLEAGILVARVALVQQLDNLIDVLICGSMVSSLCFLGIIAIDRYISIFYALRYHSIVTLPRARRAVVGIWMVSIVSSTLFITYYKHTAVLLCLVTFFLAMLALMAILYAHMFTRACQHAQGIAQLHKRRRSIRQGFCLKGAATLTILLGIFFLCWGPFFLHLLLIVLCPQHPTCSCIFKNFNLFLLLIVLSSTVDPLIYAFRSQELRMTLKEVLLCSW
Experiment [15] deals with mouse melanocortin-3 receptor (mouse) (UniProt P33033).
Chain of mouse melanocortin-3 receptor (mouse) (P33033 whole entry): as the sequence (P33033 whole entry) above
The target in experiment [16] is mouse melanocortin-5 receptor (mouse) (UniProt P41149).
Chain of mouse melanocortin-5 receptor (mouse) (P41149 whole entry): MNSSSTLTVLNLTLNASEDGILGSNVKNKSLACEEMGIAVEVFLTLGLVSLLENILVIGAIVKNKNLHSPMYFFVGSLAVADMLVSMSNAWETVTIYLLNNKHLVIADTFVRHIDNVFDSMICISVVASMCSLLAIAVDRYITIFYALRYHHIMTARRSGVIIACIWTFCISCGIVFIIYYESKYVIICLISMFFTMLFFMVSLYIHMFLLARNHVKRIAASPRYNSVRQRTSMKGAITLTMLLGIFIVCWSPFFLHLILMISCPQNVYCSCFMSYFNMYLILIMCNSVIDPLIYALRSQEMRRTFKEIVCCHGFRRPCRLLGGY

Where two headings read alike, the source gives them in different places.

T1 sequence (P56450 whole entry): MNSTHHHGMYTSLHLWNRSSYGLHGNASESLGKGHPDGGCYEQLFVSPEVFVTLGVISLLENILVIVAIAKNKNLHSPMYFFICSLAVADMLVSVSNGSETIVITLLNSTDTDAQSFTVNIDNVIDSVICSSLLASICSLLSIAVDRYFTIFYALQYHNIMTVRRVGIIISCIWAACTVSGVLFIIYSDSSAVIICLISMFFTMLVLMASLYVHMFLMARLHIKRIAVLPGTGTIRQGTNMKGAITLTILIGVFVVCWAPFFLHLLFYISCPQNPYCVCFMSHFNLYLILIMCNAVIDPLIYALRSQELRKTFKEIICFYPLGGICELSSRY
T4 sequence (P41149 whole entry): as the sequence (P41149 whole entry) above
T2 sequence (Q01727 whole entry): as the sequence (Q01727 whole entry) above

For orientation: EC50 means the concentration needed to bring the measured effect to its halfway point. Take `CCCC1CN(C(CC2CCCCC2)CN2CCCC2CN2C(=N)NCC2C(C)C)C(=N)N1CC1CCC(C(C)(C)C)CC1` (stereo not shown) [Compound 2718.003]: the “mMC4R pA2” value in [1] is listed as 5.9. For the same compound, the Kb in [2] is 1260 nM. Also, in experiment [3] (at 100 µM), the “mMC1R partial stimulation (previously reported)” value is recorded as 50–90%. Also, the EC50 was 350 nM in experiment [4]; 540 nM in experiment [7]; 640 ± 30 nM in [8]; 2000 ± 300 nM in [9]; 2500 ± 600 nM in experiment [10]; 1200 ± 200 nM in experiment [11]. Further, the “mMC4R partial stimulation, % activation (previously reported)” value in experiment [5] (at 10 µM) was 50%. Further, the “mMC4R antagonist pA2 (previously reported)” value in [6] was 5.8. Moreover, the “fold decreased mMC3R potency between the previous reported values and the present study” value in experiment [9] (AlphaScreen (present) vs previously reported value [29]) is listed as 6 fold. The “mMC4R partial agonist efficacy bin” value in experiment [10] is “A (A (20–50% receptor activation))”.
By IC50 is commonly meant the concentration at which inhibition is half-maximal. In the case of `COc1ccccc1-c1nc(=Nc2ccccc2)sn1-c1ccccc1OC` [JNJ-10229570], the IC50 in experiment [12] and in experiment [13] was 200 to 300 nM in each case.
As to `CC(C)CC1CNC(=N)N1CC1CCCN1CC(CC1CCCCC1)N1CC(C(C)O)N(CC2CCC(C(C)(C)C)CC2)C1=N` (stereo not shown) [Compound 2718.002], the “mMC4R pA2” value in experiment [1] came to 6.2. The compound further had a Kb in experiment [2] of 631 nM. The EC50 is 300 nM in experiment [3] (β-galactosidase reporter gene assay, read-out: mMC1R agonist EC50 (previously reported)); 210 nM in experiment [4]; 270 nM in experiment [5] (partial agonist, read-out: mMC4R partial agonist EC50 (previously reported)); 140 nM in experiment [7]; 270 ± 20 nM in experiment [8]; 240 ± 8 nM in experiment [9]. Further, the EC50 in experiment [10] stood at 1200 ± 300 nM; in experiment [11] it was 290 ± 10 nM. For the same compound, the “mMC4R partial agonist efficacy, % MTII signal (previously reported)” value in experiment [5] (relative to MTII) is reported as 45%. The “mMC4R antagonist pA2 (previously reported)” value in [6] is reported as 5.8. For the same compound, the “mMC4R partial agonist efficacy bin” value in experiment [10] is “A (A (20–50% receptor activation))”.
Compound NDP-MSH (peptide) displayed an EC50 of agonist activity, AlphaScreen cAMP assay, HEK293 cells stably expressing mMC1R in experiment [14] of 0.055 nM. The compound also yielded an EC50 of agonist activity, AlphaScreen cAMP assay, HEK293 cells stably expressing mMC3R in [15] of 0.069 nM. Besides, the EC50 of agonist activity, AlphaScreen cAMP assay, HEK293 cells stably expressing mMC5R in experiment [16] is 0.1 nM.

(Values after publication PMC10299128, “The Parallel Structure–Activity Relationship Screening of Three Compounds Identifies the Common Agonist Pharmacophore of Pyrrolidine Bis-Cyclic Guanidine Melanocortin-3 Receptor (MC3R) Small-Molecule Ligands” (International Journal of Molecular Sciences, 2023).)
